Source: patent US20250230193A1, “CYCLIC COMPOUND HAVING SELECTIVE KRAS INHIBITORY EFFECT ON HRAS AND NRAS” (CHUGAI SEIYAKU KABUSHIKI KAISHA, priority 2022, published 2025)
Where a SMILES comes first, the peptide text is derived from it. Bridges are numbered along the chain shown (N, C = ends). [ ]: non-standard residue; d: D form. The star is where a group is joined. hPhe(3-Cl-4-CF3) = N[C@@H](CCc1ccc(C(F)(F)F)c(Cl)c1)C(=O)O; NPrPhe(4-CF3) = CCCN[C@@H](Cc1ccc(C(F)(F)F)cc1)C(=O)O; NMeGly(cPent) = CN[C@H](C(=O)O)C1CCCC1; Pro(4,4-F2) = O=C(O)[C@@H]1CC(F)(F)CN1; Hyp = O=C(O)[C@@H]1C[C@@H](O)CN1; NMeL = CN[C@@H](CC(C)C)C(=O)O; Morpholide = C1CN(*)CCO1; NMeA = CN[C@@H](C)C(=O)O; Ac5c = NC1(C(=O)O)CCCC1; Aze = O=C(O)[C@@H]1CCN1; Ac4c = NC1(C(=O)O)CCC1; Sar = CNCC(=O)O

Key:
[1] = target: GDP-bound HRAS wild-type protein (Homo sapiens, UniProt P01112); assay: Binding to HRAS by surface plasmon resonance (SPR), Single Cycle Kinetics; settings: KD ratio HRAS/KRAS, SPR
Chain of GDP-bound HRAS wild-type protein (P01112 whole entry): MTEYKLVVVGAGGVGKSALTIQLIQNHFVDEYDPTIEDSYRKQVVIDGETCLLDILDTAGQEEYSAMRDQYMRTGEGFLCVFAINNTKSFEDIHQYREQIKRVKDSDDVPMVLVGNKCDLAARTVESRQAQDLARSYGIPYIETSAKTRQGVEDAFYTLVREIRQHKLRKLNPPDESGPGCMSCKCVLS

[2] = target: GDP-bound NRAS wild-type protein (Homo sapiens, UniProt P01111); assay: Binding to NRAS by surface plasmon resonance (SPR), Single Cycle Kinetics; settings: KD ratio NRAS/KRAS, SPR
Chain of GDP-bound NRAS wild-type protein (P01111 whole entry): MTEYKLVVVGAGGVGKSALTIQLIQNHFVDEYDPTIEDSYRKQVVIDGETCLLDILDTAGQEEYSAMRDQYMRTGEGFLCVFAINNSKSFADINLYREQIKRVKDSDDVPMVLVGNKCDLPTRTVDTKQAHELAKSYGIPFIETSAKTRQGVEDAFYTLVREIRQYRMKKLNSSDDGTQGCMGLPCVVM

SMILES	HRAS/KRAS (ratio of KD for GDP-bound HRAS wild-type to KD for KRAS) [1]	NRAS/KRAS (ratio of KD for GDP-bound NRAS wild-type to KD for KRAS) [2]
CCCN1C(=O)[C@@H]2CCN2C(=O)[C@H](C)N(C)C(=O)[C@H]([C@@H](C)CC)NC(=O)[C@H](CC(C)C)N(C)C(=O)C[C@@H](C(=O)N2CCOCC2)NC(=O)[C@H](C2CCCC2)N(C)C(=O)C2(CCC2)NC(=O)[C@@H]2CC(F)(F)CN2C(=O)[C@H](CCc2ccc(C(F)(F)F)c(Cl)c2)NC(=O)CN(C)C(=O)[C@@H]1Cc1ccc(C(F)(F)F)cc1 [PP0346] ([NMeL]I[NMeA][Aze][NPrPhe(4-CF3)][Sar][hPhe(3-Cl-4-CF3)][Pro(4,4-F2)][Ac4c][NMeGly(cPent)]D-Morpholide; lactam N-11)	B (a compound having 3 or more and less than 10 is denoted as B)	C (A compound having a KD ratio of 0.1 or more and less than 3 is denoted as C)
CCCN1C(=O)[C@@H]2CCN2C(=O)[C@H](C)N(C)C(=O)[C@H]([C@@H](C)CC)NC(=O)[C@H](CC(C)C)N(C)C(=O)C[C@@H](C(=O)N2CCOCC2)NC(=O)[C@H](C2CCCC2)N(C)C(=O)C2(CCCC2)NC(=O)[C@@H]2C[C@@H](OCC)CN2C(=O)[C@H](CCc2ccc(C(F)(F)F)c(Cl)c2)NC(=O)CN(C)C(=O)[C@@H]1Cc1ccc(C(F)(F)F)cc1 [PP0347] ([NMeL]I[NMeA][Aze][NPrPhe(4-CF3)][Sar][hPhe(3-Cl-4-CF3)][Hyp](Et)[Ac5c][NMeGly(cPent)]D-Morpholide; lactam N-11)	B (a compound having 3 or more and less than 10 is denoted as B)	C (A compound having a KD ratio of 0.1 or more and less than 3 is denoted as C)
CCCN1C(=O)[C@@H]2CCN2C(=O)[C@H](C)N(C)C(=O)[C@H]([C@@H](C)CC)NC(=O)[C@H](CC(C)C)N(C)C(=O)C[C@@H](C(=O)N2CCOCC2)NC(=O)[C@H](C2CCCC2)N(C)C(=O)C2(CCC2)NC(=O)[C@@H]2C[C@@H](OCC)CN2C(=O)[C@H](CCc2ccc(C(F)(F)F)c(Cl)c2)NC(=O)CN(C)C(=O)[C@@H]1Cc1ccc(C(F)(F)F)cc1 [PP0348] ([NMeL]I[NMeA][Aze][NPrPhe(4-CF3)][Sar][hPhe(3-Cl-4-CF3)][Hyp](Et)[Ac4c][NMeGly(cPent)]D-Morpholide; lactam N-11)	B (a compound having 3 or more and less than 10 is denoted as B)	C (A compound having a KD ratio of 0.1 or more and less than 3 is denoted as C)
CCCN1C(=O)[C@@H]2CCN2C(=O)CN(C)C(=O)[C@H]([C@@H](C)CC)NC(=O)[C@H](CC(C)C)N(C)C(=O)C[C@@H](C(=O)N2CCOCC2)NC(=O)[C@H](C2CCCC2)N(C)C(=O)C2(CCCC2)NC(=O)[C@@H]2CCCN2C(=O)[C@H](CCc2ccc(C(F)(F)F)c(Cl)c2)NC(=O)CN(C)C(=O)[C@@H]1Cc1ccc(C(F)(F)F)cc1 [PP0349] ([NMeL]I[Sar][Aze][NPrPhe(4-CF3)][Sar][hPhe(3-Cl-4-CF3)]P[Ac5c][NMeGly(cPent)]D-Morpholide; lactam N-11)	B (a compound having 3 or more and less than 10 is denoted as B)	C (A compound having a KD ratio of 0.1 or more and less than 3 is denoted as C)
CCCN1C(=O)[C@@H]2CCN2C(=O)CN(C)C(=O)[C@H]([C@@H](C)CC)NC(=O)[C@H](CC(C)C)N(C)C(=O)C[C@@H](C(=O)N2CCOCC2)NC(=O)[C@H](C2CCCC2)N(C)C(=O)C2(CCC2)NC(=O)[C@@H]2CCCN2C(=O)[C@H](CCc2ccc(C(F)(F)F)c(Cl)c2)NC(=O)CN(C)C(=O)[C@@H]1Cc1ccc(C(F)(F)F)cc1 [PP0350] ([NMeL]I[Sar][Aze][NPrPhe(4-CF3)][Sar][hPhe(3-Cl-4-CF3)]P[Ac4c][NMeGly(cPent)]D-Morpholide; lactam N-11)	B (a compound having 3 or more and less than 10 is denoted as B)	C (A compound having a KD ratio of 0.1 or more and less than 3 is denoted as C)
